Values quoted from earlier work in US8986418B1, “Method and system for agricultural fertigation” (priority 2008, dated 2015).
Like-named read-outs stand apart in the source and are kept apart here.

[Fe+2] [Fe^+2]
Solubility with anion CO3^−2: VSS (VSS means very slightly soluble (20-2,000 ppm)) | Solubility with anion CO3^−2 (listed as Fe^+3): I (I means insoluble (<20 ppm)) | Solubility with anion Cl: S (S means soluble (over 5,000 ppm)) | Solubility with anion HCO3^−: SS (SS means slightly soluble (2,000 to 5,000 ppm)) | Solubility with anion HCO3^− (listed as Fe^+3): I (I means insoluble (<20 ppm)) | Solubility with anion NO3^−: S (S means soluble (over 5,000 ppm)) | Solubility with anion OH^−: VSS (VSS means very slightly soluble (20-2,000 ppm)) | Solubility with anion OH^− (listed as Fe^+3): I (I means insoluble (<20 ppm)) | Solubility with anion PO4^−3: I (I means insoluble (<20 ppm)) | Solubility with anion SO4^−2: S (S means soluble (over 5,000 ppm)) | Solubility with anion S^−2: I (I means insoluble (<20 ppm))

[H+] [H^+]
Solubility with anion CO3^−2: CO2 | Solubility with anion Cl: S (S means soluble (over 5,000 ppm)) | Solubility with anion HCO3^−: S (S means soluble (over 5,000 ppm)) | Solubility with anion NO3^−: S (S means soluble (over 5,000 ppm)) | Solubility with anion PO4^−3: S (S means soluble (over 5,000 ppm)) | Solubility with anion SO4^−2: S (S means soluble (over 5,000 ppm))

[K+] [K^+]
Solubility with anion CO3^−2: S (S means soluble (over 5,000 ppm)) | Solubility with anion Cl: S (S means soluble (over 5,000 ppm)) | Solubility with anion HCO3^−: S (S means soluble (over 5,000 ppm)) | Solubility with anion NO3^−: S (S means soluble (over 5,000 ppm)) | Solubility with anion OH^−: S (S means soluble (over 5,000 ppm)) | Solubility with anion PO4^−3: S (S means soluble (over 5,000 ppm)) | Solubility with anion SO4^−2: S (S means soluble (over 5,000 ppm)) | Solubility with anion S^−2: S (S means soluble (over 5,000 ppm))

[Mg+2] [Mg^+2]
Solubility with anion CO3^−2: VSS (VSS means very slightly soluble (20-2,000 ppm)) | Solubility with anion Cl: S (S means soluble (over 5,000 ppm)) | Solubility with anion HCO3^−: S (S means soluble (over 5,000 ppm)) | Solubility with anion NO3^−: S (S means soluble (over 5,000 ppm)) | Solubility with anion OH^−: I (I means insoluble (<20 ppm)) | Solubility with anion PO4^−3: I (I means insoluble (<20 ppm)) | Solubility with anion SO4^−2: S (S means soluble (over 5,000 ppm))

[Mn+2] [Mn^+2]
Solubility with anion CO3^−2: I (I means insoluble (<20 ppm)) | Solubility with anion Cl: S (S means soluble (over 5,000 ppm)) | Solubility with anion NO3^−: S (S means soluble (over 5,000 ppm)) | Solubility with anion OH^−: I (I means insoluble (<20 ppm)) | Solubility with anion PO4^−3: I (I means insoluble (<20 ppm)) | Solubility with anion SO4^−2: S (S means soluble (over 5,000 ppm)) | Solubility with anion S^−2: I (I means insoluble (<20 ppm))
